From patent publication US20100280986A1, “SYSTEMS AND METHODS FOR TAILORING ACUTE AND CHRONIC VIRAL INFECTION […] INCREASE THE P[…] "CURE" FOR A GIVEN SUBJECT” (Roche Palo Alto, priority 2009, published 2010)

Test system: HCV
Assay: HCV viral kinetic population model (nonlinear mixed effects) fitted to long-term viral load profiles of 2100 CHC patients
Type: in vivo, human (patients)
From the text: In an embodiment, a population model may account for the ribavirin effect, the natural turnover and proliferation of hepatocytes, and the viral eradication.
In this example, liver physiological/patho-physiology characteristics are incorporated into model 400, such as hepatocyte cell maturation (source s), death rate (death d), maximal liver size (Tmax). Model 400 can be parameterization in terms of a reproductive ratio (RR0) rather than cell infectivity (infection β). A “cure” boundary condition can be provided when a number of infected cells is predicted to be <=1.
HCV viral kinetic model 400 is extended with a density dependent proliferation of hepatocytes [r].
Infectious HCV virions (VI) infect target cells (uninfected hepatocytes) [T] creating productively infected cells (I) at a rate β·V1·T. Uninfected hepatocytes are produced at rate s and die at rate d. Infected hepatocytes die at rate δ. Infectious (VI) and non-infectious (VNI) virions are produced at rate p and cleared at rate c. The measured viral load (V) can be expressed in IU/mL, representing the sum of infectious and non-infectious virions V=VI+VN.
Continuing the example, DoseRBV is the daily dose of ribavirin per kg body weight and ED50RRV is the estimated daily dose in mg/kg rendering 40% of the virions non-infectious. […]

**Q.** With NC(=O)c1ncn([C@@H]2O[C@H](CO)[C@@H](O)[C@H]2O)n1 [ribavirin] as the molecule, how does the “ED50RBV (estimated daily dose rendering virions non-infectious)” value (population estimate, daily dose per kg body weight) read?
**A.** Its value is 14.4 mg˜kg^−1·day^−1.

**Q.** And the “Fraction of the virions rendered non-infectious” value (standard ribavirin treatment of 1000/1200 mg per day)?
**A.** Its value is 40-60%.
